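1) Cells in 96-well plates. 2) Compound, 48 h, 5 concentrations. 3) Linear interpolation between surrounding doses. 4) Unreached endpoint = highest concentration. TGI: concentration producing complete growth inhibition.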
Assays:
Assay in all cases: DTP human tumour cell line panel, 48 h
[1] = system: RPMI-8226 leukemia
[2] = system: U251 CNS
[3] = system: M14 melanoma
[4] = system: HCT-116 colon
[5] = system: SK-OV-3 ovarian
[6] = system: NCI-H23 lung
[7] = system: PC-3 prostate
[8] = system: BT-549 breast
[9] = system: SK-MEL-5 melanoma
[10] = system: UACC-62 melanoma
[11] = system: DU-145 prostate
[12] = system: SR leukemia
[13] = system: EKVX NSCLC
[14] = system: COLO 205 colon
[15] = system: HCC-2998 colon
[16] = system: SF-268 CNS
[17] = system: LOX IMVI melanoma
[18] = system: HOP-62 NSCLC
[19] = system: SNB-75 CNS
[20] = system: HCT-15 colon
[21] = system: OVCAR-3 ovarian
[22] = system: RXF 393 renal
[23] = system: IGROV1 ovarian
[24] = system: HT29 colon
[25] = system: OVCAR-4 ovarian
[26] = system: SK-MEL-28 melanoma
[27] = system: A498 renal
[28] = system: T-47D breast
[29] = system: OVCAR-8 ovarian
[30] = system: MCF7 breast
[31] = system: NCI-H460 lung
[32] = system: KM12 colon
[33] = system: K-562 leukemia
[34] = system: HS 578T breast
[35] = system: A549 NSCLC
[36] = system: OVCAR-5 ovarian
[37] = system: NCI-H522 lung
[38] = system: NCI/ADR-RES ovarian
[39] = system: MDA-MB-435
[40] = system: CCRF-CEM leukemia
[41] = system: SF-295 CNS
[42] = system: HL-60(TB) leukemia
[43] = system: NCI-H226 lung
[44] = system: SF-539 CNS
[45] = system: MDA-MB-231 breast
[46] = system: UACC-257 melanoma
[47] = system: MDA-N
[48] = system: 786-0 renal
[49] = system: SNB-19 CNS
[50] = system: SK-MEL-2 melanoma
[51] = system: SN12C renal
[52] = system: ACHN renal
[53] = system: CAKI-1 renal
[54] = system: UO-31 renal
[55] = system: HOP-92 NSCLC
[56] = system: MOLT-4 leukemia
[57] = system: TK-10 renal
[58] = system: SW-620 colon
[59] = system: MALME-3M melanoma

CCOC(=O)C#Cc1ccc([N+](=O)[O-])cc1 was tested. Which TGI [1] did it give?
Its TGI is 4.68 µM.

What about the TGI [2] of the same molecule?
Its TGI is 3 µM.

What about the TGI [3] of the same molecule?
Its TGI is 5.34 µM.

And the TGI [4]?
The TGI was 3.03 µM.

And the TGI [5]?
The TGI was 25.6 µM.

And the TGI [6]?
The TGI was 7.55 µM.

And the TGI [7]?
Its TGI is 8.54 µM.

And the TGI [8]?
Its TGI is 4.76 µM.

And the TGI [9]?
Its TGI is 9.63 µM.

What about the TGI [10] of the same molecule?
The TGI was 4.05 µM.

And the TGI [11]?
Its TGI is 3.12 µM.

What about the TGI [12] of the same molecule?
Its TGI is 5.27 µM.

What about the TGI [13] of the same molecule?
Its TGI is 4.71 µM.

And the TGI [14]?
Its TGI is 3.09 µM.

And the TGI [15]?
Its TGI is 28.7 µM.

And the TGI [16]?
Its TGI is 8.62 µM.

And the TGI [17]?
The TGI was 2.77 µM.

And the TGI [18]?
The TGI was 11.3 µM.

And the TGI [19]?
Its TGI is 7.88 µM.

And the TGI [20]?
Its TGI is 4.33 µM.

And the TGI [21]?
The TGI was 3.13 µM.

And the TGI [22]?
The TGI was 2.63 µM.

And the TGI [23]?
The TGI was 4.42 µM.

What about the TGI [24] of the same molecule?
Its TGI is 2.94 µM.

What about the TGI [25] of the same molecule?
Its TGI is 23.3 µM.

And the TGI [26]?
Its TGI is 23.4 µM.

What about the TGI [27] of the same molecule?
Its TGI is 32 µM.

And the TGI [28]?
The TGI was 4.05 µM.

What about the TGI [29] of the same molecule?
Its TGI is 10.5 µM.

What about the TGI [30] of the same molecule?
Its TGI is 2.49 µM.

What about the TGI [31] of the same molecule?
The TGI was 29.2 µM.

What about the TGI [32] of the same molecule?
Its TGI is 3.81 µM.

And the TGI [33]?
Its TGI is 11.9 µM.

And the TGI [34]?
Its TGI is 21.8 µM.

And the TGI [35]?
Its TGI is 27 µM.

And the TGI [36]?
The TGI was 2.83 µM.

What about the TGI [37] of the same molecule?
The TGI was 3.09 µM.

And the TGI [38]?
The TGI was 79.5 µM.

And the TGI [39]?
The TGI was 10.8 µM.

What about the TGI [40] of the same molecule?
Its TGI is 4.05 µM.

And the TGI [41]?
Its TGI is 25.6 µM.

What about the TGI [42] of the same molecule?
Its TGI is 4.1 µM.

What about the TGI [43] of the same molecule?
Its TGI is 7.78 µM.

What about the TGI [44] of the same molecule?
Its TGI is 6.69 µM.

What about the TGI [45] of the same molecule?
Its TGI is 4.64 µM.

And the TGI [46]?
The TGI was 10.8 µM.

What about the TGI [47] of the same molecule?
The TGI was 10.5 µM.

And the TGI [48]?
Its TGI is 3.41 µM.

And the TGI [49]?
The TGI was 25.7 µM.

And the TGI [50]?
The TGI was 11.6 µM.

What about the TGI [51] of the same molecule?
Its TGI is 3.39 µM.

And the TGI [52]?
Its TGI is 10.2 µM.

And the TGI [53]?
Its TGI is 3.47 µM.

And the TGI [54]?
The TGI was 3.15 µM.

And the TGI [55]?
Its TGI is 3.47 µM.

And the TGI [56]?
The TGI was 5.22 µM.

What about the TGI [57] of the same molecule?
Its TGI is 27.4 µM.

And the TGI [58]?
The TGI was 7.43 µM.

How did the TGI [1] turn out when COC(OC)(c1ccccc1)C(I)I was run?
The TGI was greater than 100 µM.

And the TGI [2]?
The TGI was 33 µM.

What about the TGI [3] of the same molecule?
The TGI was 15.2 µM.

What about the TGI [4] of the same molecule?
Its TGI is 18.1 µM.

What about the TGI [5] of the same molecule?
The TGI was 16.7 µM.

And the TGI [6]?
The TGI was 50.7 µM.

And the TGI [7]?
The TGI was 30.7 µM.

What about the TGI [8] of the same molecule?
Its TGI is 23.1 µM.

And the TGI [9]?
The TGI was 21.9 µM.

What about the TGI [10] of the same molecule?
Its TGI is 26.6 µM.

And the TGI [11]?
The TGI was greater than 67.7 µM.

What about the TGI [12] of the same molecule?
Its TGI is greater than 45.7 µM.

What about the TGI [13] of the same molecule?
Its TGI is 16.9 µM.

What about the TGI [14] of the same molecule?
The TGI was 24.2 µM.

What about the TGI [15] of the same molecule?
The TGI was greater than 58.3 µM.

And the TGI [16]?
Its TGI is 46.1 µM.

What about the TGI [17] of the same molecule?
Its TGI is 32.4 µM.

And the TGI [18]?
Its TGI is greater than 58.3 µM.

What about the TGI [19] of the same molecule?
Its TGI is 26.3 µM.

What about the TGI [20] of the same molecule?
The TGI was 18.5 µM.

And the TGI [21]?
The TGI was 28.7 µM.

And the TGI [22]?
Its TGI is 10.4 µM.

And the TGI [23]?
Its TGI is 27.4 µM.

What about the TGI [24] of the same molecule?
Its TGI is 34.9 µM.

And the TGI [25]?
The TGI was 27.4 µM.

And the TGI [26]?
Its TGI is 30.7 µM.

And the TGI [28]?
Its TGI is 63.1 µM.

What about the TGI [29] of the same molecule?
The TGI was 35.1 µM.

What about the TGI [30] of the same molecule?
The TGI was 47.4 µM.

And the TGI [31]?
Its TGI is 37.7 µM.

What about the TGI [32] of the same molecule?
The TGI was 40.1 µM.

What about the TGI [33] of the same molecule?
The TGI was greater than 35.4 µM.

What about the TGI [34] of the same molecule?
The TGI was 62.4 µM.

And the TGI [35]?
Its TGI is 43.6 µM.

What about the TGI [36] of the same molecule?
Its TGI is 33.1 µM.

And the TGI [59]?
The TGI was 13.3 µM.

And the TGI [37]?
The TGI was 6.98 µM.

What about the TGI [38] of the same molecule?
Its TGI is greater than 59.7 µM.

And the TGI [39]?
Its TGI is 18 µM.

And the TGI [40]?
Its TGI is 22.7 µM.

And the TGI [41]?
Its TGI is greater than 52.7 µM.

And the TGI [42]?
Its TGI is 20.4 µM.

And the TGI [43]?
Its TGI is 42.4 µM.

What about the TGI [44] of the same molecule?
Its TGI is 17.6 µM.

And the TGI [45]?
Its TGI is 36.4 µM.

What about the TGI [46] of the same molecule?
The TGI was 8.73 µM.

What about the TGI [47] of the same molecule?
Its TGI is 22.6 µM.

And the TGI [48]?
The TGI was 21.5 µM.

And the TGI [49]?
The TGI was greater than 71 µM.

What about the TGI [50] of the same molecule?
The TGI was 35.4 µM.

And the TGI [51]?
The TGI was 50.4 µM.

What about the TGI [52] of the same molecule?
The TGI was 31.9 µM.

What about the TGI [53] of the same molecule?
Its TGI is 24.1 µM.

What about the TGI [54] of the same molecule?
Its TGI is 29.8 µM.

And the TGI [55]?
Its TGI is 26.7 µM.

What about the TGI [56] of the same molecule?
Its TGI is greater than 49.8 µM.

What about the TGI [57] of the same molecule?
Its TGI is 26.2 µM.

And the TGI [58]?
Its TGI is greater than 37.1 µM.

— PubChem BioAssay (NCI)
